In US20060160814A1, “Phosphodiesterase 10 inhibitors” (priority 2004, published 2006):
Structures can show the parent of a compound that is named as a salt.

melting point: 210 to 212 °C (dec.)
Structure (SMILES): COc1cc2nncc(C(C#N)C3=NC(C)(C)CN3C(C)C)c2cc1OC (stereo not shown) (as salt: hydrochloride) [Compound 110, (4,5-Dihydro-4,4-dimethyl-1-isopropyl-1H-imidazol-2-yl) (6,7-dimethoxycinnolin-4-yl)-acetonitrile hydrochloride]
